Measured values: article doi:10.1101/2024.01.14.575554v1 (biorxiv, 2024)

Target: T1, Hsp60β (Sulfolobus acidocaldarius, UniProt Q9V2T4)
T1 sequence (Q9V2T4 1-553): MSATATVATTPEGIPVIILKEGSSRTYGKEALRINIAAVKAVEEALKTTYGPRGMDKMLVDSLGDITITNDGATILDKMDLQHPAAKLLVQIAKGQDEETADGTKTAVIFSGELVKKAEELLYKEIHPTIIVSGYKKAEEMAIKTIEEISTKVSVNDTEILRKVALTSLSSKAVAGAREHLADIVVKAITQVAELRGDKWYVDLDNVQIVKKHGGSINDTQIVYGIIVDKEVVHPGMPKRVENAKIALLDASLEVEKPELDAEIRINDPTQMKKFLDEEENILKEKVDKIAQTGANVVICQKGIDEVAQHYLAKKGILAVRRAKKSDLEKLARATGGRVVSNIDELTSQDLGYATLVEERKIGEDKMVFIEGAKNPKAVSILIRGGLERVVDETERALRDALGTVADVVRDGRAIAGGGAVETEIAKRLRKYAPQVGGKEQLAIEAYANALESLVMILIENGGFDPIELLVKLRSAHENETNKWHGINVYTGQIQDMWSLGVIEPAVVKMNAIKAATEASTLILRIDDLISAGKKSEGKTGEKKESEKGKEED
Test: FRET titration, tryptophan donor to MANT acceptor
Format: binding

Work on `CNc1ccccc1C(=O)O[C@H]1[C@@H](O)[C@H](n2cnc3c(N)ncnc32)O[C@@H]1CO[P@@](=O)(O)O[P@](=O)(O)OP(=O)(O)O` [MANT-ATP, 2’/3’-(N-methyl-anthraniloyl)-adenosine-5’-triphosphate] yielded a Kd of 77.2 ± 3.8 µM.
